In one series the test system is Anti-(H12)2. As to the kind of experiment: Specificity of the immunoassay (cross-reactivity in human serum). It counts as binding, rabbit. Conditions: 10 μg/mL of crossreactant plus 5 μg/mL of tipranavir in human serum. As to the method:
Also antibody Anti-(H12)2 was used in this Example as part of an antibody reagent (“Anti-(H12)2 Antibody Reagent”) further comprising nicotinamide adenine dinucleotide, glucose-6-phosphate, sodium chloride, bulking agent, surfactant, and preservatives.
An immunoassay for tipranavir was conducted on the Cobas Mira Chemistry Analyzer (Roche). On the analyzer, 4 μL of sample plus 61 μL water were incubated for 300 sec with 150 μL of Anti-(H12)2 Antibody Reagent. […] After 25 sec incubation, enzyme activity was monitored by following the production of NADH spectrophotometrically at 340 nm for 50 sec.
Testing was performed on the Cobas Mira analyzer. The percentage concentration above 5 μg/mL of tipranavir was calculated for each crossreactant.

For series [1] the following is noted: cited from earlier work.
The test system of a further series is CYP450 enzymes. Conditions: in vitro; cited from earlier work.
In series [2] the test system is primary hepatocyte. The note with it: rat; cited from earlier work.
In series [3] the test system is primary hepatocyte. Conditions: dog; cited from earlier work.
Series [4] relates to primary hepatocyte. Conditions: human; cited from earlier work.
For series [5] the following is noted: rats; cited from earlier work.
For series [6] the following is noted: dogs; cited from earlier work.
For series [7], the target named is T1, mammalian DNA polymerases α (Homo sapiens, UniProt P09884).
T1 sequence (P09884 1-1462): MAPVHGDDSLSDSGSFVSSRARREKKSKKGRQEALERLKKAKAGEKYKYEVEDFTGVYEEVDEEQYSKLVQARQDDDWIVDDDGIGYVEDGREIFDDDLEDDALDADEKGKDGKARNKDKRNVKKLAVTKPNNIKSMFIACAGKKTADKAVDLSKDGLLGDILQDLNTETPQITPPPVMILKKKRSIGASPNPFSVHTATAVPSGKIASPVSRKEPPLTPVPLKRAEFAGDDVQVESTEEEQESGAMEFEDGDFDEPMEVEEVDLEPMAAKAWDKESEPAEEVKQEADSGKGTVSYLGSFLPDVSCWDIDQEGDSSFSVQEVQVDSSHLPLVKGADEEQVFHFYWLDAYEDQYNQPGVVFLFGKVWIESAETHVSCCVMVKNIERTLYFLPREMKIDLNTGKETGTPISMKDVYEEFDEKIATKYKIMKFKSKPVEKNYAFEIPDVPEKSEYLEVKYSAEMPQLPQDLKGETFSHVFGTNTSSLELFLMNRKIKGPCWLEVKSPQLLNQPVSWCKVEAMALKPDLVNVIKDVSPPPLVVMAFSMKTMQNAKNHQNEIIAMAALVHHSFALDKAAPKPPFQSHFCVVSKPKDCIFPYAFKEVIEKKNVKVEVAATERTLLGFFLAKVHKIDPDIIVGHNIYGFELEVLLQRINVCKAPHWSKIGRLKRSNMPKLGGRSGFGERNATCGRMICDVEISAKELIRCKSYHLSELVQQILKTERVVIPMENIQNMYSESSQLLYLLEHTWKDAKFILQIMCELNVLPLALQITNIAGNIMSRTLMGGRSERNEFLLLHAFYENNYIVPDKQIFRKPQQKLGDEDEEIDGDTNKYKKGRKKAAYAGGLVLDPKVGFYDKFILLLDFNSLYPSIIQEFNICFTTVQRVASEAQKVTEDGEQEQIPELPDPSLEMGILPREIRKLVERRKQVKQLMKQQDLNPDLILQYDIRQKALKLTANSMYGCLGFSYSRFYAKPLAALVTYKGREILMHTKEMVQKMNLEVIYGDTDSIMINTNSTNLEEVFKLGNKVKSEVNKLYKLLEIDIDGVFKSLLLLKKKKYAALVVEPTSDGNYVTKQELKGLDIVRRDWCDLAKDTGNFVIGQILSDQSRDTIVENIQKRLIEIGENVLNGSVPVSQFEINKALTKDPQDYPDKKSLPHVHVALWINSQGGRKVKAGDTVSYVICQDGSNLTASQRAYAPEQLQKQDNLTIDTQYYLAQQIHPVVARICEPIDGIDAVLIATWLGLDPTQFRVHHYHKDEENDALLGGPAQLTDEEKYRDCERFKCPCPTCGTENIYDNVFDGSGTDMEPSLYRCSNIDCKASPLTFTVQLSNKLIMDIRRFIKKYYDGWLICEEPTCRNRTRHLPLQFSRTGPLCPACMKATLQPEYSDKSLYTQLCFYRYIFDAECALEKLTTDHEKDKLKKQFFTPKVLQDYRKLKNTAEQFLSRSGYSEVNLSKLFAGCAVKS
Conditions: cited from earlier work.

Series [8] deals with mammalian DNA polymerases β (Homo sapiens, UniProt P06746). Conditions: cited from earlier work.
Series [9] has as its target T2, mitochondrial DNA polymerase γ (Homo sapiens, UniProt P54098).
T2 sequence (P54098 1-1239): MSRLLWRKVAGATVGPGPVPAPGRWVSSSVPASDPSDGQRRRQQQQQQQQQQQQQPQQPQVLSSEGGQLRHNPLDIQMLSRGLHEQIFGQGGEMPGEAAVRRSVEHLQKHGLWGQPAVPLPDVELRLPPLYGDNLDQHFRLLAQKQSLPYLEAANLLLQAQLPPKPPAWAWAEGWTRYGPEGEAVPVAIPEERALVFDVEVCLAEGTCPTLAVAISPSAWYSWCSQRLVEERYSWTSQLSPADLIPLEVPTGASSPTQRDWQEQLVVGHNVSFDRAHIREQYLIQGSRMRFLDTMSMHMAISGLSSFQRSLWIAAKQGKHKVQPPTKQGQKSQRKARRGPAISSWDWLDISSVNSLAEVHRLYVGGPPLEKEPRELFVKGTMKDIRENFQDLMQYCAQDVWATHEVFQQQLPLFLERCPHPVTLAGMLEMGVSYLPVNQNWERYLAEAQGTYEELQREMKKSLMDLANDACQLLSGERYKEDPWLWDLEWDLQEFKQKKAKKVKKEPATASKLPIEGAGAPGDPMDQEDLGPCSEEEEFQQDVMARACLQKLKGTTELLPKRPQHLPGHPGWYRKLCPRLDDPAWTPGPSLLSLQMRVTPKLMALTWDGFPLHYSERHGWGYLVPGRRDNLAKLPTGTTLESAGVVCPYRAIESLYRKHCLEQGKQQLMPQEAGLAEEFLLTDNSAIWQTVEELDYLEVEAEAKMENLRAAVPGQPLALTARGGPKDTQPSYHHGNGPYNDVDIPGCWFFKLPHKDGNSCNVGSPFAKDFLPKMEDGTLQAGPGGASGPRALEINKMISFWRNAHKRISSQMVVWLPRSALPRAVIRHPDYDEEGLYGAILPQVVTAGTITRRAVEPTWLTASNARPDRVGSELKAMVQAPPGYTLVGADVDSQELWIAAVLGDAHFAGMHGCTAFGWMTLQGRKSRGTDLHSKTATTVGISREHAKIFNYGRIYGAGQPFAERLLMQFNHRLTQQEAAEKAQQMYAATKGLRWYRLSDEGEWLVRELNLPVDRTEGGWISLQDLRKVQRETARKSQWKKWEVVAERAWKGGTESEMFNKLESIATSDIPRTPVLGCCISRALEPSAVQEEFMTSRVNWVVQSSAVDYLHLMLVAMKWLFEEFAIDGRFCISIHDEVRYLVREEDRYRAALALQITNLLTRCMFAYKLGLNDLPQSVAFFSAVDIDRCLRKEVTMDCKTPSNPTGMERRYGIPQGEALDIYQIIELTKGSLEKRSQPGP
Conditions: cited from earlier work.

The conditions of series [10]: cited from earlier work. This is another data set of the same source.

Structures can show the parent of a compound that is named as a salt. Where two headings read alike, the source gives them in different places.

As to `CC(C)(C)NC(=O)[C@@H]1C[C@@H]2CCCC[C@@H]2CN1C[C@@H](O)[C@H](Cc1ccccc1)NC(=O)[C@H](CC(N)=O)NC(=O)c1ccc2ccccc2n1` [Saquinavir], the “Percent Increase in Apparent Tipranavir” value with Anti-(H12)2 worked out at 0%.

Tenofovir: the “dose recovered in the urine as unchanged tenofovir” value in [1] (IV administration, within 72 hours of dosing) was 70-80%. Moreover, in series [1] (single dose, oral administration of Tenofovir disoproxil fumarate), the terminal elimination half-life entry was “approximately 17 hours”. Besides, the “substrate of CYP450 enzymes” value in the series with CYP450 enzymes is “neither tenofovir disoproxil nor tenofovir are substrates of CYP450 enzymes”.

With `O=C1Nc2ccc(Cl)cc2[C@@](C#CC2CC2)(C(F)(F)F)O1` [Efavirenz], in the series on Anti-(H12)2, the “Percent Increase in Apparent Tipranavir” value came to 0%.

Regarding `CCC[C@@]1(CCc2ccccc2)CC(O)=C([C@H](CC)c2cccc(NS(=O)(=O)c3ccc(C(F)(F)F)cn3)c2)C(=O)O1` [Tipranavir], the “stability in primary hepatocyte incubations” value in the series on primary hepatocyte [2], with primary hepatocyte [3] and with primary hepatocyte [4] was “stable” each time. For the same molecule, the plasma metabolic profile entry in series [5] and in series [6] was “only the parent drug” throughout.

On to `Cc1c(O)cccc1C(=O)N[C@@H](CSc1ccccc1)[C@H](O)CN1C[C@H]2CCCC[C@H]2C[C@H]1C(=O)NC(C)(C)C` [Nelfinavir], for which the “Percent Increase in Apparent Tipranavir” value in the series with Anti-(H12)2 is 0%.

Consider `CC(Cn1cnc2c(N)ncnc21)OCP(=O)(O)OP(=O)(O)OP(=O)(O)O` (stereo in doubt) [Tenofovir diphosphate], for which the “inhibition of DNA polymerase α” value in series [7] is reported as “weak inhibitor”. Moreover, in [8], the “inhibition of DNA polymerase β” value is given as “weak inhibitor”. The “inhibition of mitochondrial DNA polymerase γ” value in [9] is on record as “weak inhibitor”.

`CC(C)OC(=O)OCOP(=O)(CO[C@H](C)Cn1cnc2c(N)ncnc21)OCOC(=O)OC(C)C` [tenofovir disoproxil]: the “substrate of CYP450 enzymes” value in the series with CYP450 enzymes is recorded as “neither tenofovir disoproxil nor tenofovir are substrates of CYP450 enzymes”.

Turning to `CC(C)(C)NC(=O)[C@@H]1CN(Cc2cccnc2)CCN1C[C@@H](O)C[C@@H](Cc1ccccc1)C(=O)N[C@H]1c2ccccc2C[C@H]1O` [Indinavir], the “Percent Increase in Apparent Tipranavir” value in the series on Anti-(H12)2 stood at 0%.

Regarding `CC(C)CN(C[C@@H](O)[C@H](Cc1ccccc1)NC(=O)O[C@H]1CCOC1)S(=O)(=O)c1ccc(N)cc1` [Amprenavir], in the series on Anti-(H12)2, the “Percent Increase in Apparent Tipranavir” value is given as 0%.

In the case of 2′-deoxy-3′-thiacytidine [Lamivudine], in the series on Anti-(H12)2, the “Percent Increase in Apparent Tipranavir” value is reported as 0%. For the same molecule, the figures for the absolute bioavailability entry in series [10] (adults) and in series [10] (children) were “approximately 82%” and approximately 68%, respectively. Moreover, in series [10] (oral administration), the “time to maximum serum concentrations after the dose” value is 0.5 to 1.5 h. Also, the “oral dose eliminated renally as unchanged drug” value in series [10] (oral dose) was “approximately 70%”. The “secretion into breast milk” value in series [10] (postpartum women) was “secreted into breast milk”. Also, the placental transfer result in series [10] (pregnant women) was “diffuses freely across the placenta”. In addition, in [10] (with food), the “systemic exposure (AUC) when administered with food” value is “not altered”.

For the molecule `Cc1cccc(C)c1OCC(=O)N[C@@H](Cc1ccccc1)[C@@H](O)C[C@H](Cc1ccccc1)NC(=O)[C@H](C(C)C)N1CCCNC1=O` [Lopinavir], in the series on Anti-(H12)2, the “Percent Increase in Apparent Tipranavir” value was determined as 0%.

As for `CC(C)OC(=O)OCOP(=O)(CO[C@H](C)Cn1cnc2c(N)ncnc21)OCOC(=O)OC(C)C` [Tenofovir disoproxil fumarate], the “administered dose recovered in urine” value in series [1] (multiple oral doses 300 mg once daily (under fed conditions), over 24 hours) is recorded as 32±10%.

On to `CC(C)c1nc(CN(C)C(=O)N[C@H](C(=O)N[C@@H](Cc2ccccc2)C[C@H](O)[C@H](Cc2ccccc2)NC(=O)OCc2cncs2)C(C)C)cs1` [Ritonavir], for which, in the series with Anti-(H12)2, the “Percent Increase in Apparent Tipranavir” value came to 0%.

Source of the values: patent publication US20070218486A1, “Immunoassays, Haptens, Immunogens and Antibodies for Anti-HIV Therapeutics” (Ark Diagnostics, Inc., priority 2006, published 2007).
